{"source": "paper PMC2650103", "about": "(Journal of medicinal chemistry, 2008)", "origin": "cited, not measured here", "system": "cowpox, vaccinia or ectromelia virus", "details": "mouse, in vivo, po; cited from earlier work"}
{"smiles": "O=C(NN1C(=O)C2C3C=CC(C4CC34)C2C1=O)c1ccc(C(F)(F)F)cc1", "note": "(stereo not shown) [Compound 30, 4-trifluoromethyl-N-(3,3a,4,4a,5,5a,6,6a-octahydro-1,3-dioxo-4,6-ethenocycloprop[f]isoindol-2(1H)-yl)-benzamide]", "values": [{"measurement": "Protection against viral spread in mice", "result": "effective in protecting against viral spread"}]}
